Reference: the CATMoS acute toxicity set (Mansouri et al. 2021)
“And” between values parts separate entries of the source, which are not always exact repeats. Equal entries are not always repeated.

Assay: rat acute oral toxicity
Settings: in vivo

CN(C)CCCCCCN(C)C
LD50: 238 mg/kg

COc1ccc(C(=CC(=O)N2CCOCC2)c2ccc(Cl)cc2)cc1OC
LD50: 3900 mg/kg

CCCCCCCCC=CCCCCCCCC1=NCCN1CCO
LD50: 1000 mg/kg

COc1ccccc1NC(=O)CC(C)=O
LD50: 1600 mg/kg

O=C(O)CC(O)C(=O)O (stereo unspecified)
LD50: 9300 mg/kg and 3200 mg/kg

CCOP(=S)(OCC)Oc1ccc(Cl)cc1Cl
LD50: 172 mg/kg

CC(=O)C(Cl)C(=O)N(C)C (stereo unspecified)
LD50: 275 mg/kg

CC(C)c1nn(C(=O)NC(C)(C)C)c(=O)n1N
LD50: 1020 mg/kg

CO[Si](CCCNCCN)(OC)OC
LD50: 1900 mg/kg

CCOP(=O)(N=C1SCC(C)S1)OCC (stereo unspecified)
LD50: 8.9 mg/kg

CCOP(=S)(OCC)Oc1nc(Cl)c(Cl)cc1Cl
LD50: 108 mg/kg

Cc1ncc2n1-c1ccc(Cl)cc1C(c1ccccc1F)=NC2
LD50: 215 mg/kg

CCCCN(C)C
LD50: 184 mg/kg

ClCC1CO1 (stereo unspecified)
LD50: 65 mg/kg

CC(C1CC1)C(O)(Cn1cncn1)c1ccc(Cl)cc1 (stereo unspecified)
LD50: 350 mg/kg

CC1(C)[C@H](C(=O)O[C@@H](C#N)c2cccc(Oc3ccccc3)c2)[C@@H]1C=C(Cl)Cl (single isomer, unassigned)
LD50: 57 mg/kg

CN(C)C(=O)Nc1ccccc1
LD50: 6400 mg/kg

N[C@@H](Cc1ccc(N(CCCl)CCCl)cc1)C(=O)O
LD50: 11.2 mg/kg

O=Cc1ccccn1
LD50: 566 mg/kg

C#C[C@]1(O)CC[C@H]2[C@@H]3CCc4cc(O)ccc4[C@H]3CC[C@@]21C
LD50: 960 mg/kg

Cc1cccc(C)c1N
LD50: 840 mg/kg

CCOc1ccc(NC(C)=O)cc1
LD50: 1650 mg/kg

CC1(C)OC[C@@H]2O[C@@]3(C(=O)O)OC(C)(C)O[C@H]3[C@@H]2O1
LD50: 18000 mg/kg

CCCCCCCCCCCCCC[N+](C)(C)CCCCCCCCCCCCCC
LD50: 930 mg/kg

CCCCOP(C)(=O)CCC(C#N)OC(C)=O (stereo unspecified)
LD50: 253 mg/kg

Cn1cnc2c1c(=O)[nH]c(=O)n2C
LD50: 950 mg/kg

O=[N+]([O-])c1ccc(Cl)cc1
LD50: 460 mg/kg

C1CNCCN1
LD50: 1980 mg/kg

CN(C)c1nc(=O)n(C2CCCCC2)c(=O)n1C
LD50: 1200 mg/kg

CC(O)CCO (stereo unspecified)
LD50: 18600 mg/kg

O=S1(=O)CCCC1
LD50: 1970 mg/kg

CC(=O)OC1CC(C)OC(C)O1 (stereo unspecified)
LD50: 1930 mg/kg

COCC(=O)N(c1c(C)cccc1C)C(C)C(=O)OC (stereo unspecified)
LD50: 566 mg/kg

O=C1O[B-]2(OC1=O)OC(=O)C(=O)O2
LD50: 175 mg/kg

COC(=O)Nc1ccc(Cl)c(Cl)c1
LD50: 522 mg/kg

CCOP(=S)(OCC)SCSP(=S)(OCC)OCC
LD50: 13 mg/kg

OCCN1CN(CCO)CN(CCO)C1
LD50: 763 mg/kg

Cc1ccccc1Cc1ccccc1
LD50: 3020 mg/kg

Cc1ccc(N)cc1N
LD50: 73 mg/kg

O=P(Oc1ccccc1)(Oc1ccccc1)Oc1ccccc1
LD50: 3500 mg/kg

O=[N+]([O-])c1ccc(Cl)cc1Cl
LD50: 379 mg/kg

CCOc1ccc(CCCCCCC(C)C)cc1
LD50: 5600 mg/kg

O=Cc1ccco1
LD50: 100 mg/kg

CC(Cc1ccc(C(C)(C)C)cc1)CN1CCCCC1 (stereo unspecified)
LD50: 1450 mg/kg

NC(=S)Nc1cccc2ccccc12
LD50: 3 mg/kg

Nc1ccncc1
LD50: 14 mg/kg

O=P(OCCCl)(OCCCl)OCCCl
LD50: 466 mg/kg

CCCCCCCCCCCCCCCCCCN(C)C
LD50: 2120 mg/kg

COC(=O)c1ccccc1
LD50: 1180 mg/kg

O=C(O)c1ccc(C(=O)O)cc1
LD50: 1960 mg/kg

CCC(=O)C(CC(C)N(C)C)(c1ccccc1)c1ccccc1 (stereo unspecified)
LD50: 30 mg/kg

C=CC(C)C#N (stereo unspecified)
LD50: 232 mg/kg

CC(=O)O[Si](C)(OC(C)=O)OC(C)=O
LD50: 1550 mg/kg

CCCC(=O)OC(C(Cl)(Cl)Cl)P(=O)(OC)OC (stereo unspecified)
LD50: 760 mg/kg

CC(=O)C(C)=O
LD50: 1580 mg/kg

CNC(=O)CSP(=O)(OC)OC
LD50: 25 mg/kg

CCOC(=O)c1cn2nc(OP(=S)(OCC)OCC)cc2nc1C
LD50: 151 mg/kg

OC(c1ccc(Cl)cc1)(c1ccc(Cl)cc1)C(Cl)(Cl)Cl
LD50: 575 mg/kg

CCCCCCCCCCCCCCCCCC[N+](C)(C)C
LD50: 702 mg/kg

CNC1=Nc2ccc(Cl)cc2C(c2ccccc2)=[N+]([O-])C1
LD50: 392 mg/kg

CCCCOC(=O)c1ccccc1
LD50: 735 mg/kg

C#CCOS(=O)OC1CCCCC1Oc1ccc(C(C)(C)C)cc1 (stereo unspecified)
LD50: 2200 mg/kg

CNC(=O)CC#N
LD50: 387 mg/kg

O=P(OC(CCl)CCl)(OC(CCl)CCl)OC(CCl)CCl
LD50: 1850 mg/kg

C=CC1CC=CCC1 (stereo unspecified)
LD50: 1600 mg/kg

Clc1cc(Cl)c(Cl)nc1Cl
LD50: 1000 mg/kg

CNN
LD50: 32 mg/kg

O=C(Cl)c1ccccc1
LD50: 2460 mg/kg

O=C(C(Cl)(Cl)Cl)C(Cl)(Cl)Cl
LD50: 240 mg/kg

CO[Si](C)(OC)C1CCCCC1
LD50: 2760 mg/kg

CN(C)CCCNCCCN
LD50: 1540 mg/kg

COCCO
LD50: 2260 mg/kg

CCCC(C)=O
LD50: 1600 mg/kg

C/C=C\CC1=C(C)[C@@H](OC(=O)[C@@H]2[C@@H](C=C(C)C)C2(C)C)CC1=O
LD50: 1030 mg/kg

Cc1ccc(S(N)(=O)=O)cc1
LD50: 2330 mg/kg

CCCCCCCO
LD50: 500 mg/kg

CCOP(=S)(NC(C)C)Oc1ccccc1C(=O)OC(C)C (stereo unspecified)
LD50: 21.1 mg/kg

CCCCSP(=O)(SCCCC)SCCCC
LD50: 150 mg/kg

CCO[Si](CCCSC#N)(OCC)OCC
LD50: 986 mg/kg

CCCCCCCCOC(=O)c1ccccc1C(=O)OCCCCCCCC
LD50: 47000 mg/kg

Cc1c(N)cccc1N
LD50: 1000 mg/kg

CCCOCC(C)OCC(C)O (stereo unspecified)
LD50: 1500 mg/kg

CC(C)C(=O)c1ccccc1
LD50: 1950 mg/kg

CO[Si](OC)(c1ccccc1)c1ccccc1
LD50: 2610 mg/kg

COP(=S)(OC)SCN1C(=O)c2ccccc2C1=O
LD50: 26 mg/kg

COc1ccc(Cc2nccc3cc(OC)c(OC)cc23)cc1OC
LD50: 325 mg/kg

N#CCCC(Br)(C#N)CBr (stereo unspecified)
LD50: 515 mg/kg

Cc1ccc2nc3sc(=O)sc3nc2c1
LD50: 1100 mg/kg

N#CCCCCCCC#N
LD50: 238 mg/kg

COP(=O)(OC)O/C(C)=C/C(=O)N(C)C
LD50: 9 mg/kg

C=COC(C)=O
LD50: 2900 mg/kg

OCCOc1ccccc1
LD50: 1370 mg/kg

Nc1ccc(Nc2ccccc2)cc1
LD50: 464 mg/kg

C1CCSC1
LD50: 1750 mg/kg

CCN(CC)CCCN
LD50: 410 mg/kg

CCCCOCCOCCO
LD50: 5080 mg/kg

Cc1ccc(/N=C/N(C)/C=N/c2ccc(C)cc2C)c(C)c1
LD50: 400 mg/kg

ClC1=C(Cl)C2(Cl)C3C(Cl)C(Cl)CC3C1(Cl)C2(Cl)Cl (stereo unspecified)
LD50: 200 mg/kg

O=C1OC(=O)c2ccccc21
LD50: 1530 mg/kg

CCCCCCCCCC(=O)O
LD50: 3320 mg/kg

CC(C)(C)CC(C)(C)c1ccc(OCCO)cc1
LD50: 1800 mg/kg

COP(=S)(OC)SCc1nc(N)nc(N)n1
LD50: 890 mg/kg

O=C(Cl)CCCCl
LD50: 1350 mg/kg

O=C(O)C(F)(OC(F)(F)C(F)(F)C(F)(F)F)C(F)(F)F (stereo unspecified)
LD50: 1750 mg/kg

CCCCCC(=O)O
LD50: 3000 mg/kg

Oc1ccc(O)cc1
LD50: 302 mg/kg

CC(C)(C)NCCOCCO
LD50: 1400 mg/kg

CCOC(=O)C(SP(=S)(OC)OC)c1ccccc1 (stereo unspecified)
LD50: 71 mg/kg

O=C=Nc1cccc(C(F)(F)F)c1
LD50: 975 mg/kg

Clc1ccc(-c2ccc(Cl)c(Cl)c2Cl)c(Cl)c1Cl
LD50: 1300 mg/kg

CCCCOCCOC(=O)COc1ccc(Cl)cc1Cl
LD50: 831 mg/kg

CCOP(=O)(OCC)OCC
LD50: 1160 mg/kg

c1ccc(OP(Oc2ccccc2)Oc2ccccc2)cc1
LD50: 444 mg/kg

Cc1cccc([N+](=O)[O-])c1
LD50: 1070 mg/kg

CC(O)COCC(C)O (stereo unspecified)
LD50: 14800 mg/kg

CCCSP(=O)(OCC)Oc1ccc(Br)cc1Cl (stereo unspecified)
LD50: 358 mg/kg

Oc1c(Br)cc(Br)cc1Br
LD50: 1490 mg/kg

Clc1ccc(C(Cl)(Cl)Cl)cc1Cl
LD50: 1420 mg/kg

Clc1nc(Cl)nc(Cl)n1
LD50: 315 mg/kg

C=CNC=O
LD50: 1000 mg/kg

CC(C)(C)OOC(=O)c1ccccc1
LD50: 1010 mg/kg

CCCC(=O)Nc1ccc(OCC(O)CNC(C)C)c(C(C)=O)c1 (stereo unspecified)
LD50: 3200 mg/kg

c1ccc(OCC2CO2)cc1 (stereo unspecified)
LD50: 2500 mg/kg

ClCCl
LD50: 1500 mg/kg

c1ccc(-c2ccccn2)nc1
LD50: 100 mg/kg

Cc1ccccc1NC(=N)NC(=N)N
LD50: 800 mg/kg

CCCCSP(SCCCC)SCCCC
LD50: 910 mg/kg

CCNC(=O)CSP(=S)(OC)OC
LD50: 125 mg/kg

C=CCOC(=O)C(=C)C
LD50: 70 mg/kg

O=C(NCc1cccnc1)Nc1ccc([N+](=O)[O-])cc1
LD50: 4.75 mg/kg

Cc1cccnc1
LD50: 400 mg/kg

Cc1nnc(-c2ccccc2)c(=O)n1N
LD50: 1180 mg/kg

CCNCCO
LD50: 1000 mg/kg

CC(C)Nc1nc(Cl)nc(NC2CC2)n1
LD50: 516 mg/kg

CSSC
LD50: 290 mg/kg

O=C1CCC(=O)O1
LD50: 1510 mg/kg

ClCC(Cl)Cl
LD50: 836 mg/kg

OCCOCCO
LD50: 12600 mg/kg

CCCOCCO
LD50: 3090 mg/kg

O=C(Nc1ccc(Cl)c(Cl)c1)Nc1cc(Cl)ccc1Oc1ccc(Cl)cc1S(=O)(=O)O
LD50: 476 mg/kg

Cc1cc(Cl)ccc1OCCCC(=O)O
LD50: 680 mg/kg

O=S(=O)(O)CCCS
LD50: 3720 mg/kg

CCSC(=O)N(CC(C)C)CC(C)C
LD50: 4000 mg/kg

C1CC2OC2CC1C1CO1 (stereo unspecified)
LD50: 2130 mg/kg

COCCOCCO
LD50: 5500 mg/kg

N#Cc1ccc(Cl)c(Cl)c1
LD50: 200 mg/kg

COc1ccccc1O
LD50: 520 mg/kg

C[N+](C)(C)CCCl
LD50: 600 mg/kg

CCCCOCC1CO1 (stereo unspecified)
LD50: 1660 mg/kg

Cc1ccc(O)c(C)c1
LD50: 2300 mg/kg

CCN(CC)c1nc(C)cc(OP(=S)(OC)OC)n1
LD50: 1250 mg/kg

CCCCC(CC)COP(Oc1ccccc1)Oc1ccccc1 (stereo unspecified)
LD50: 3840 mg/kg

C=CC1CC2C=CC1C2 (stereo unspecified)
LD50: 5240 mg/kg

COP(=S)(OC)Oc1ccc(Sc2ccc(OP(=S)(OC)OC)cc2)cc1
LD50: 444 mg/kg

COP(=S)(OC)Oc1ccc(S(=O)(=O)N(C)C)cc1
LD50: 28 mg/kg

CC(C)=CCC/C(C)=C/CO
LD50: 3600 mg/kg

CNCCO
LD50: 1390 mg/kg

N#CCC(=O)O
LD50: 1010 mg/kg

CC(=O)OCCc1ccccc1
LD50: 3670 mg/kg

CCc1cccc(CC)c1N
LD50: 1800 mg/kg

CCC(C)(C#N)/N=N/C(C)(C#N)CC (stereo unspecified)
LD50: 333 mg/kg

NCCO
LD50: 1720 mg/kg

O=C=NCc1cccc(CN=C=O)c1
LD50: 3200 mg/kg

COP(=S)(Oc1cc(Cl)c(Br)cc1Cl)c1ccccc1 (stereo unspecified)
LD50: 19 mg/kg

O=C(Nc1ccc(Cl)c(Cl)c1)C1CC1
LD50: 215 mg/kg

Oc1cccc(O)c1
LD50: 301 mg/kg

ClC1=C(Cl)C2(Cl)C3C(Cl)OC(Cl)C3C1(Cl)C2(Cl)Cl (stereo unspecified)
LD50: 4.8 mg/kg

CS(=O)(=O)Cl
LD50: 50 mg/kg

CCC(=O)OCc1ccccc1
LD50: 3300 mg/kg

CCN(CC)C(=O)N1CCN(C)CC1
LD50: 1380 mg/kg

CCCCC(=O)O
LD50: 1060 mg/kg

C=C(Cl)Cl
LD50: 80 mg/kg

COc1ccc(C(=O)c2ccccc2)c(O)c1
LD50: 7400 mg/kg

Cc1cccc(N)c1C
LD50: 930 mg/kg

CCNc1nc(Cl)nc(NC(C)(C)C#N)n1
LD50: 149 mg/kg

Oc1ccc(Cl)cc1Cc1cc(Cl)ccc1O
LD50: 1510 mg/kg
